Source: PubChem BioAssay AID248 (DTP/NCI, 2004)
Inconclusive results and toxic doses are left out. Rule as the data show it: active = T/C of 150% or more; inactive = T/C below 125%.

Test system: L1210 leukemia ip in BDF1 mice, survival T/C
Assay: NCI In Vivo Anticancer Drug Screen. Data for tumor model L1210 Leukemia (intraperitoneal) in B6D2F1 (BDF1) mice
Settings: endpoint: mean survival time, higher = longer survival
Method in brief: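 Ratio derived from survival: compound-dosed mice over vehicle-dosed mice, all bearing a transplantable tumor.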

[1] = dose: 100.0 mg/kg/injection, schedule: Q04DX002 (ip), vehicle: Klucel (hydroxypropylcellulose) (HPC)
[2] = dose: 50.0 mg/kg/injection, schedule: Q01DX001 (ip), vehicle: carboxymethylcellulose (CMC)
[3] = dose: 100.0 mg/kg/injection, schedule: Q01DX001 (ip), vehicle: carboxymethylcellulose (CMC)
[4] = dose: 200.0 mg/kg/injection, schedule: Q01DX001 (ip), vehicle: carboxymethylcellulose (CMC)
[5] = dose: 400.0 mg/kg/injection, schedule: Q01DX001 (ip), vehicle: carboxymethylcellulose (CMC)
[6] = dose: 100.0 mg/kg/injection, schedule: Q01DX001 (ip), vehicle: Klucel (hydroxypropylcellulose) (HPC)
[7] = dose: 200.0 mg/kg/injection, schedule: Q01DX001 (ip), vehicle: Klucel (hydroxypropylcellulose) (HPC)
[8] = dose: 400.0 mg/kg/injection, schedule: Q01DX001 (ip), vehicle: Klucel (hydroxypropylcellulose) (HPC)
[9] = dose: 100.0 mg/kg/injection, schedule: Q01DX009 (ip), vehicle: Klucel (hydroxypropylcellulose) (HPC)
[10] = dose: 200.0 mg/kg/injection, schedule: Q01DX009 (ip), vehicle: Klucel (hydroxypropylcellulose) (HPC)
[11] = dose: 400.0 mg/kg/injection, schedule: Q01DX009 (ip), vehicle: Klucel (hydroxypropylcellulose) (HPC)
[12] = dose: 100.0 mg/kg/injection, schedule: Q01DX001 (ip), vehicle: saline
[13] = dose: 75.0 mg/kg/injection, schedule: Q01DX001 (ip), vehicle: saline

Measured: T/C

Nc1ncnc2nc(-c3ccccc3)[nH]c12
inactive: dose: 25.0 mg/kg/injection, schedule: Q04DX002 (ip), vehicle: Klucel (hydroxypropylcellulose) (HPC) 102 % of control | dose: 50.0 mg/kg/injection, schedule: Q04DX002 (ip), vehicle: Klucel (hydroxypropylcellulose) (HPC) 94 % of control | [1] 91 % of control

O=C(CCCC(=O)OCC(F)(F)C(F)(F)C(F)(F)C(F)F)OCC(F)(F)C(F)(F)C(F)(F)C(F)F
inactive: [2] 102 % of control | [3] 100 % of control | [4] 100 % of control | [5] 100 % of control

O=CN/N=C\c1cc2ccccc2c2ccccc12
inactive: [2] 96 % of control | [3] 93 % of control | [4] 93 % of control | [5] 87 % of control

CCCCOc1ccc(C(N)=S)c2ccccc12
inactive: [6] 105 % of control | [7] 112 % of control | [8] 94 % of control

O=C(NCCCCCCNC(=O)Nc1cccc2ccccc12)Nc1cccc2ccccc12
inactive: [9] 97 % of control | [10] 103 % of control | [11] 92 % of control

OC12CCCCC1C[n+]1ccccc1C2 (stereo not given)
inactive: [12] 101 % of control

O=C1CC(c2ccccc2)C(c2ccccc2)C(=O)N1 (stereo not given)
inactive: [13] 90 % of control | dose: 150.0 mg/kg/injection, schedule: Q01DX001 (ip), vehicle: saline 90 % of control

O=C(Nc1cccc2ccccc12)N1CCCc2ccccc21
inactive: [2] 88 % of control | [3] 98 % of control | [4] 95 % of control | [5] 90 % of control

Cc1cc(C)c2cc(C=O)cc-2c(C)c1
inactive: dose: 100.0 mg/kg/injection, schedule: Q04DX003 (ip), vehicle: saline with Tween-80 103 % of control | dose: 200.0 mg/kg/injection, schedule: Q04DX003 (ip), vehicle: saline with Tween-80 94 % of control | dose: 400.0 mg/kg/injection, schedule: Q04DX003 (ip), vehicle: saline with Tween-80 93 % of control

CN(CN(C)NC(=O)c1ccccc1)NC(=O)c1ccccc1
inactive: [3] 98 % of control

CCCCOCCOC(=O)CC(/C=C(/C)CC(C)(C)C)C(=O)OCCOCCCC (stereo not given)
inactive: dose: 222.0 mg/kg/injection, schedule: Q01DX Z (ip), vehicle: methylcellulose (MC) 101 % of control | dose: 333.0 mg/kg/injection, schedule: Q01DX Z (ip), vehicle: methylcellulose (MC) 108 % of control | dose: 500.0 mg/kg/injection, schedule: Q01DX Z (ip), vehicle: methylcellulose (MC) 96 % of control

Cc1ccc(NC(=O)COc2ccc(Cl)cc2)c(C)c1
inactive: [6] 99 % of control | [9] 100 % of control | dose: 100.0 mg/kg/injection, schedule: Q04DX003 (ip), vehicle: Klucel (hydroxypropylcellulose) (HPC) 96 % of control | [7] 99 % of control | [10] 102 % of control | dose: 200.0 mg/kg/injection, schedule: Q04DX003 (ip), vehicle: Klucel (hydroxypropylcellulose) (HPC) 96 % of control | [8] 99 % of control | dose: 400.0 mg/kg/injection, schedule: Q04DX003 (ip), vehicle: Klucel (hydroxypropylcellulose) (HPC) 98 % of control

CC1CN(c2ccccc2)CN1c1ccccc1 (stereo not given)
inactive: dose: 100.0 mg/kg/injection, schedule: Q04DX002 (sc), vehicle: olive oil, sesame oil, peanut oil 94 % of control | dose: 200.0 mg/kg/injection, schedule: Q04DX002 (sc), vehicle: olive oil, sesame oil, peanut oil 91 % of control | dose: 400.0 mg/kg/injection, schedule: Q04DX002 (sc), vehicle: olive oil, sesame oil, peanut oil 102 % of control

CC(C)(C)c1ccc(OS(=O)(=O)c2ccccc2[N+](=O)[O-])cc1
inactive: [6] 102 % of control | [7] 98 % of control | [8] 95 % of control

COc1ccc(CC(=O)N(CCNS(=O)(=O)c2ccc(C)cc2)CCOC(C)=O)cc1
inactive: dose: 100.0 mg/kg/injection, schedule: Q01DX001 (ip), vehicle: water 104 % of control | dose: 200.0 mg/kg/injection, schedule: Q01DX001 (ip), vehicle: water 107 % of control | dose: 400.0 mg/kg/injection, schedule: Q01DX001 (ip), vehicle: water 96 % of control

C#C/C(=N\Nc1ccc([N+](=O)[O-])cc1[N+](=O)[O-])c1ccccc1
inactive: dose: 75.0 mg/kg/injection, schedule: Q04DX002 (ip), vehicle: saline with Tween-80 91 % of control | dose: 150.0 mg/kg/injection, schedule: Q04DX002 (ip), vehicle: saline with Tween-80 102 % of control | dose: 300.0 mg/kg/injection, schedule: Q04DX002 (ip), vehicle: saline with Tween-80 88 % of control

C[N+](C)(C)C12CCCCC1S(=O)(=O)C2 (stereo not given)
inactive: [13] 108 % of control

NCCCNc1ccc([N+](=O)[O-])cc1
inactive: dose: 37.5 mg/kg/injection, schedule: Q04DX003 (ip), vehicle: saline 101 % of control | dose: 75.0 mg/kg/injection, schedule: Q04DX003 (ip), vehicle: saline 102 % of control | dose: 150.0 mg/kg/injection, schedule: Q04DX003 (ip), vehicle: saline 101 % of control

CCc1ccccc1NC(=O)Nc1ccc(C(=O)O)cc1
inactive: [9] 98 % of control | [10] 94 % of control

Nc1ccc(C2=NCCO2)cc1
inactive: [6] 92 % of control | [7] 103 % of control | [8] 96 % of control

CC(C)CC(C)c1c(N)nc(N)[nH]c1=O (stereo not given)
inactive: [6] 97 % of control | [7] 103 % of control | [8] 109 % of control

CN1C(=O)C2C3C=CC(C3)C2C1=O (stereo not given)
inactive: [6] 97 % of control | [9] 101 % of control | [7] 101 % of control | [10] 100 % of control | [8] 106 % of control | [11] 96 % of control

O=[N+]([O-])c1ccc(NCCNC(c2ccccc2)(c2ccccc2)c2ccccc2)c([N+](=O)[O-])c1
inactive: dose: 50.0 mg/kg/injection, schedule: Q01DX009 (ip), vehicle: saline 96 % of control | [12] 87 % of control | dose: 100.0 mg/kg/injection, schedule: Q01DX009 (ip), vehicle: saline 91 % of control | dose: 200.0 mg/kg/injection, schedule: Q01DX001 (ip), vehicle: saline 90 % of control | dose: 200.0 mg/kg/injection, schedule: Q01DX009 (ip), vehicle: saline 93 % of control

O=c1[nH]c2cc([N+](=O)[O-])ccc2c2ccc(Cl)cc12
inactive: [3] 102 % of control | [4] 91 % of control | [5] 95 % of control

[O-][n+]1ccc2ccccc2c1
inactive: dose: 50.0 mg/kg/injection, schedule: Q01DX005 (ip), vehicle: Klucel (hydroxypropylcellulose) (HPC) 102 % of control | dose: 50.0 mg/kg/injection, schedule: Q01DX009 (ip), vehicle: Klucel (hydroxypropylcellulose) (HPC) 101 % of control | dose: 100.0 mg/kg/injection, schedule: Q01DX001 (ip), vehicle: other 110 % of control | dose: 100.0 mg/kg/injection, schedule: Q01DX005 (ip), vehicle: Klucel (hydroxypropylcellulose) (HPC) 97 % of control | [9] 108 % of control | [1] 106 % of control | dose: 100.0 mg/kg/injection, schedule: Q04DX003 (ip), vehicle: saline 111 % of control | dose: 200.0 mg/kg/injection, schedule: Q01DX001 (ip), vehicle: other 100 % of control | dose: 200.0 mg/kg/injection, schedule: Q01DX005 (ip), vehicle: Klucel (hydroxypropylcellulose) (HPC) 105 % of control | [10] 111 % of control | dose: 200.0 mg/kg/injection, schedule: Q04DX002 (ip), vehicle: Klucel (hydroxypropylcellulose) (HPC) 109 % of control | dose: 200.0 mg/kg/injection, schedule: Q04DX003 (ip), vehicle: saline 114 % of control | dose: 400.0 mg/kg/injection, schedule: Q01DX001 (ip), vehicle: other 103 % of control
